Experimental data from patent US4663435A, “Bridged cyclic hexapeptide somatostatin analogs” (Merck & Co., Inc., priority 1985, dated 1987).
Positions of bridges follow the written chain, without caps; N, C: chain ends. Non-standard residues stand in square brackets, D forms with d. Residues, ends and D or L forms follow the SMILES beside them.

Columns and labels:
[1] = test system: growth hormone release from rat pituitary cells; experiment: in vitro test for the inhibition of growth hormone release, cultured rat pituitary cells; assay type: cell-based; details: multiple or fraction of the effect of somatostatin (=1), fiducial limits in parentheses, 4 hours incubation
Description: The instant cyclic hexapeptide analogs of somatostatin are tested and compared with the effects of somatostatin in an in vitro test for the inhibition of growth hormone. The test is described as follows:
"Rat pituitaries were isolated according to the procedures of Vale and Grant `In Vitro Pituitary Hormone Secretion Assay for Hypophysiotropic Substances` in Methods in Enzymology. Vol. XXXVII, eds. O'Malley, B. W. and Hardman, J. G. (Academic Press, Inc., New York) pp. 5-93 (1975).
After 4 days in culture, the cells were washed and incubated for 4 hours in Dulbecco-modified Eagle's medium in the presence or absence of graded doses of each analog or somatostatin. The medium was then collected for subsequent growth hormone determination by a double antibody radioimmunoassay for rat growth hormone."

portal vein insulin = experiment: decrease of portal vein insulin levels in anesthetized rats; assay type: in vivo, rat; details: multiple or fraction of the effect of somatostatin (=1), fiducial limits in parentheses, external jugular vein, portal vein blood after 5 minutes
Description: (§1) Analogs of somatostatin were compared to somatostatin in their ability to decrease the levels of portal vein glucagon and insulin in anesthetized rats. Male Sprague-Dawley rats (Charles River CD) weighing 160-200 g were anesthetized with urethane (150 mg/100 g of body weight; Aldrich). Saline or peptides were adminstered via the external jugular vein. After 5 minutes, the portal vein was exposed, and blood was collected via syringe containing 3 mg of EDTA and placed in chilled tubes containing 100 μl of Trasylol (FBA Pharmaceuticals) for subsequent hormone analysis. Plasma levels of glucagon were determined by the method of Faloona and Unger, Methods of Hormone Radioimmunoassay, Jaffe and Behrman (Eds), Academic Press, New York, Vol. II, pp. 257-527 (1976), utilizing glucagon antisera 30K obtained from R. Unger (Dallas, TX). Plasma levels of insulin were determined by a modification of the procedure of Herbert et al., J. Clin. Endocrinol. Metab., 25, 1375-1384 (1965).

portal vein glucagon = experiment: decrease of portal vein glucagon levels in anesthetized rats; assay type: in vivo, rat; details: relative to somatostatin (=1), external jugular vein, portal vein blood after 5 minutes
Description: as §1

[2] = stability of the isolated peptide with respect to polymerization; assay type: physicochemical
Description: In order to stabilize the compound toward such decomposition it was treated in aqueous solution with 10-40 mole % of N-ethylmaleimide, a reagent which will react with free sulfhydryl groups that could catalyze disulfide interchange. The excess N-ethyl maleimide was separated by passage through a column of Sephadex G-25 gel (superfine) eluted with 50% acetic acid.

| SMILES | Growth Hormone Release Inhibition [1] | Insulin Inhibition (portal vein insulin) | Glucagon Inhibition (portal vein glucagon) | stability with respect to polymerization ([2]; after treatment with 10-40 mole % of N-ethylmaleimide and reisolation) | stability with respect to polymerization ([2]; sample as isolated, in certain solvents or on extended storage) |
| --- | --- | --- | --- | --- | --- |
| C[C@@H](O)[C@@H]1NC(=O)[C@H](CCCCN)NC(=O)[C@@H](Cc2c[nH]c3ccccc23)NC(=O)[C@H](Cc2ccccc2)NC(=O)[C@@H]2CSSC[C@H](NC1=O)C(=O)N2 (cyclo(CCF[dW]KT); disulfide 1-2) | 2.47(1.66-3.81) | 10.6(5.5-19.9) | Active | completely stable | unstable |
| C[C@H](N)C(=O)NCC(=O)N[C@H]1CSSC[C@@H](C(=O)O)NC(=O)[C@H](CO)NC(=O)[C@H]([C@@H](C)O)NC(=O)[C@H](Cc2ccccc2)NC(=O)[C@H]([C@@H](C)O)NC(=O)[C@H](CCCCN)NC(=O)[C@H](Cc2c[nH]c3ccccc23)NC(=O)[C@H](Cc2ccccc2)NC(=O)[C@H](Cc2ccccc2)NC(=O)[C@H](CC(N)=O)NC(=O)[C@H](CCCCN)NC1=O [Somatostatin] | – | – | 1 | – | – |
